Experimental data from patent publication US11111242B2, “Pyrrolo[2,3-d]pyrimidinyl, pyrrolo[2,3-b]pyrazinyl and pyrrolo[2,3-d]pyridinyl acrylamides” (Pfizer Inc., priority 2013, dated 2021).
pIC50: −log10 of the molar value. Where two headings read alike, the source gives them in different places.

How the values were obtained:
[1] = test system: IL-15 induced STAT5 phosphorylation in Human Whole Blood (total lymphocytes); assay: HWB IL-15 Induced STAT5 Phosphorylation Assay; format: cell-based; settings: Lymphocyte, IL-15 stimulated, read-out: HWB-IL15-pSTAT5 IC50
Procedure: HWB IL-15 Induced STAT5 Phosphorylation Assay
After mixing and incubating for 45 minutes at 37° C., 5 μl D-PBS (unstimulated control) or 20× stocks of 5 μl human IL-15 (final concentration is 50 ng/ml) were added, and mixed three times. After incubating 15 minutes at 37° C., 1× Lyse/Fix Buffer (BD Phosflow 5× Lyse/Fix Buffer) was added to all wells at 1000 μl/well, then incubated for 20 minutes at 37° C. and spun 5 mins at 1200 rpm. […] Following incubating at 4° C. over night, all the samples were transferred to 96-well polypropylene U-bottom plate, and checked by flow cytometry gated on total lymphocytes.

[2] = test system: IL-15 induced P-STAT5 in human PBMC (total lymphocytes); assay: PBMC IL-15 Induced P-STAT5; format: cell-based; settings: IL-15 stimulated, read-out: PBMC IL15-pSTAT5 IC50
In short: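 Thawed human PBMC in RPMI, preincubated 30 min at 37 °C, then IL-15 stimulated. Cells methanol-permeabilized (90%, on ice 20 min) and stained for phospho-STAT5. Read by flow cytometry, gated on total lymphocytes.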

SMILES	pIC50 [1]	pIC50 [2]	pIC50 ([2]; Homo sapiens, PBMC)
C=CC(=O)N1CCC(Nc2cnc3[nH]cc(C(=O)NCCC(F)(F)F)c3n2)CC1 [Example 246, 2-[(1-acryloylpiperidin-4-yl)amino]-N-(3,3,3-trifluoropropyl)-5H-pyrrolo[2,3-b]pyrazine-7-carboxamide]	6.73	7.37	–
C=CC(=O)N1CCC(Nc2cnc3[nH]cc(C(=O)N[C@H]4CC[C@H](F)C4)c3n2)CC1 [Example 247, 2-[(1-acryloylpiperidin-4-yl)amino]-N-[(1S,3S)-3-fluorocyclopentyl]-5H-pyrrolo[2,3-b]pyrazine-7-carboxamide]	6.19	–	6.85
C=CC(=O)N1CCC(Nc2cnc3[nH]cc(C(=O)N[C@@H]4CCC[C@@H]4F)c3n2)CC1 [Example 251, 2-[(1-acryloylpiperidin-4-yl)amino]-N-[(1R,2S)-2-fluorocyclopentyl]-5H-pyrrolo[2,3-b]pyrazine-7-carboxamide]	6.09	7.13	–
C=CC(=O)N1CCC(Nc2cnc3[nH]cc(C(=O)NCC(C)CC(F)(F)F)c3n2)CC1 (centres unmarked) [Example 253, 2-[(1-acryloylpiperidin-4-yl)amino]-N-(4,4,4-trifluoro-2-methylbutyl)-5H-pyrrolo[2,3-b]pyrazine-7-carboxamide]	6.37	–	7.11
C=CC(=O)N1CCC(Nc2cnc3[nH]cc(C(=O)NC4CCCCC4(F)F)c3n2)CC1 (centres unmarked) [Example 256, 2-[(1-acryloylpiperidin-4-yl)amino]-N-(2,2-difluorocyclohexyl)-5H-pyrrolo[2,3-b]pyrazine-7-carboxamide]	6.26	7.31	–
C=CC(=O)N1CCC(Nc2cnc3[nH]cc(C(=O)NCCC#N)c3n2)CC1 [Example 261, 2-[(1-acryloylpiperidin-4-yl)amino]-N-(2-cyanoethyl)-5H-pyrrolo[2,3-b]pyrazine-7-carboxamide]	6.67	6.67	–
C=CC(=O)N1CCC(Nc2cnc3[nH]cc(C(=O)N[C@H](CC)CC#N)c3n2)CC1 [Example 263, 2-[(1-acryloylpiperidin-4-yl)amino]-N-[(2R)-1-cyanobutan-2-yl]-5H-pyrrolo[2,3-b]pyrazine-7-carboxamide]	6.37	7.13	–
C=CC(=O)N1CCC(Nc2cnc3[nH]cc(C(=O)NC(C)(C)C)c3n2)CC1 [Example 266, 2-[(1-acryloylpiperidin-4-yl)amino]-N-tert-butyl-5H-pyrrolo[2,3-b]pyrazine-7-carboxamide]	6.41	7.15	–
C=CC(=O)N1CCC(Nc2cnc3[nH]cc(C(=O)N[C@H](C)COC)c3n2)CC1 [Example 268, 2-[(1-acryloylpiperidin-4-yl)amino]-N-[(2R)-1-methoxypropan-2-yl]-5H-pyrrolo[2,3-b]pyrazine-7-carboxamide]	6.58	–	7.36
C=CC(=O)N1CCC(Nc2cnc3[nH]cc(C(=O)NCCCC)c3n2)CC1 [Example 269, 2-[(1-acryloylpiperidin-4-yl)amino]-N-butyl-5H-pyrrolo[2,3-b]pyrazine-7-carboxamide]	6.44	7.32	–
C=CC(=O)N1CCC(Nc2cnc3[nH]cc(C(=O)NCC(C)C)c3n2)CC1 [Example 272, 2-[(1-acryloylpiperidin-4-yl)amino]-N-(2-methylpropyl)-5H-pyrrolo[2,3-b]pyrazine-7-carboxamide]	6.59	–	7.14
C=CC(=O)N1CCC(Nc2cnc3[nH]cc(C(=O)NCC(F)(F)F)c3n2)CC1 [Example 273, 2-[(1-acryloylpiperidin-4-yl)amino]-N-(2,2,2-trifluoroethyl)-5H-pyrrolo[2,3-b]pyrazine-7-carboxamide]	6.67	7.25	–
C=CC(=O)N1CCC(Nc2cnc3[nH]cc(C(=O)N[C@H](C)CCC)c3n2)CC1 [Example 274, 2-[(1-acryloylpiperidin-4-yl)amino]-N-[(2R)-pentan-2-yl]-5H-pyrrolo[2,3-b]pyrazine-7-carboxamide]	6.32	7.24	–
C=CC(=O)N1CCC(Nc2cnc3[nH]cc(C(=O)NCCOC)c3n2)CC1 [Example 275, 2-[(1-acryloylpiperidin-4-yl)amino]-N-(2-methoxyethyl)-5H-pyrrolo[2,3-b]pyrazine-7-carboxamide]	6.41	6.83	–
C=CC(=O)N1CCC(Nc2cnc3[nH]cc(C(=O)NC4CCCCC4)c3n2)CC1 [Example 278, 2-[(1-acryloylpiperidin-4-yl)amino]-N-cyclohexyl-5H-pyrrolo[2,3-b]pyrazine-7-carboxamide]	6.44	7.24	–
C=CC(=O)N1CCC(Nc2cnc3[nH]cc(C(=O)NC4CCC4)c3n2)CC1 [Example 280, 2-[(1-acryloylpiperidin-4-yl)amino]-N-cyclobutyl-5H-pyrrolo[2,3-b]pyrazine-7-carboxamide]	6.42	7.40	–
C=CC(=O)N1CCC(Nc2cnc3[nH]cc(C(=O)NC45CC(C4)C5)c3n2)CC1 [Example 281, 2-[(1-acryloylpiperidin-4-yl)amino]-N-(bicyclo[1.1.1]pent-1-yl)-5H-pyrrolo[2,3-b]pyrazine-7-carboxamide]	6.31	–	7.50
C=CC(=O)N1CCC(Nc2cnc3[nH]cc(C(=O)NCC(C)(F)F)c3n2)CC1 [Example 282, 2-[(1-acryloylpiperidin-4-yl)amino]-N-(2,2-difluoropropyl)-5H-pyrrolo[2,3-b]pyrazine-7-carboxamide]	6.36	7.14	–
C=CC(=O)N1CCC(Nc2cnc3[nH]cc(C(=O)NC4CCCC4)c3n2)CC1 [Example 283, 2-[(1-acryloylpiperidin-4-yl)amino]-N-cyclopentyl-5H-pyrrolo[2,3-b]pyrazine-7-carboxamide]	6.15	–	7.23
C=CC(=O)N1CCC(Nc2cnc3[nH]cc(C(=O)N[C@@H](C)CC)c3n2)CC1 [Example 285, 2-[(1-acryloylpiperidin-4-yl)amino]-N-[(2S)-butan-2-yl]-5H-pyrrolo[2,3-b]pyrazine-7-carboxamide]	6.43	7.50	–

Continued by rising pIC50 [1], values first:

pIC50 [1]	SMILES	pIC50 [2]	pIC50 ([2]; Homo sapiens, PBMC)
5.35	C=CC(=O)N1CCN(c2cnc3[nH]cc(C(=O)NC(C)C)c3n2)CC1(C)C [Example 293, 2-(4-acryloyl-3,3-dimethylpiperazin-1-yl)-N-(propan-2-yl)-5H-pyrrolo[2,3-b]pyrazine-7-carboxamide]	–	6.52
5.91	C=CC(=O)N1CCC(Nc2cnc3[nH]cc(C(=O)NCC4CCCC4)c3n2)CC1 [Example 270, 2-[(1-acryloylpiperidin-4-yl)amino]-N-(cyclopentylmethyl)-5H-pyrrolo[2,3-b]pyrazine-7-carboxamide]	–	7.27
6.05	C=CC(=O)N1CCC(Nc2cnc3[nH]cc(C(=O)NC4CC(F)(F)C4)c3n2)CC1 [Example 245, 2-[(1-acryloylpiperidin-4-yl)amino]-N-(3,3-difluorocyclobutyl)-5H-pyrrolo[2,3-b]pyrazine-7-carboxamide]	6.64	–
6.09	C=CC(=O)N1CCC(Nc2cnc3[nH]cc(C(=O)N[C@@H]4CC[C@H](F)C4)c3n2)CC1 [Example 255, 2-[(1-acryloylpiperidin-4-yl)amino]-N-[(1R,3S)-3-fluorocyclopentyl]-5H-pyrrolo[2,3-b]pyrazine-7-carboxamide]	–	6.89
6.10	C=CC(=O)N1CCC(Nc2cnc3[nH]cc(C(=O)NCC(C)(C)C)c3n2)CC1 [Example 271, 2-[(1-acryloylpiperidin-4-yl)amino]-N-(2,2-dimethylpropyl)-5H-pyrrolo[2,3-b]pyrazine-7-carboxamide]	–	6.87
6.18	C=CC(=O)N1CCC(Nc2cnc3[nH]cc(C(=O)NC4CCC(F)(F)C4)c3n2)CC1 (centres unmarked) [Example 259, 2-[(1-acryloylpiperidin-4-yl)amino]-N-(3,3-difluorocyclopentyl)-5H-pyrrolo[2,3-b]pyrazine-7-carboxamide]	6.93	–
6.31	C=CC(=O)N1CCC(Nc2cnc3[nH]cc(C(=O)NC(C)(C)CC)c3n2)CC1 [Example 276, 2-[(1-acryloylpiperidin-4-yl)amino]-N-(2-methylbutan-2-yl)-5H-pyrrolo[2,3-b]pyrazine-7-carboxamide]	7.24	–
6.45	C=CC(=O)N1CCC(Nc2cnc3[nH]cc(C(=O)NC(C)C4CC4)c3n2)CC1 (centres unmarked) [Example 288, 2-[(1-acryloylpiperidin-4-yl)amino]-N-(1-cyclopropylethyl)-5H-pyrrolo[2,3-b]pyrazine-7-carboxamide]	–	7.35
6.62	C=CC(=O)N1CCC(Nc2cnc3[nH]cc(C(=O)N[C@@H](C)CCC)c3n2)CC1 [Example 267, 2-[(1-acryloylpiperidin-4-yl)amino]-N-[(2S)-pentan-2-yl]-5H-pyrrolo[2,3-b]pyrazine-7-carboxamide]	7.44	–
6.97	C=CC(=O)N1CCC(Nc2cnc3[nH]cc(C(=O)N[C@H](C)CC)c3n2)CC1 [Example 289, 2-[(1-acryloylpiperidin-4-yl)amino]-N-[(2R)-butan-2-yl]-5H-pyrrolo[2,3-b]pyrazine-7-carboxamide]	7.43	–
7.08	C=CC(=O)N1CCC(Nc2cnc3[nH]cc(C(=O)N[C@@H](C)COC)c3n2)CC1 [Example 277, 2-[(1-acryloylpiperidin-4-yl)amino]-N-[(2S)-1-methoxypropan-2-yl]-5H-pyrrolo[2,3-b]pyrazine-7-carboxamide]	–	6.99
